Key:
Experiment in all cases: relative viability (nuclei count vs DMSO), 5 days (fraction); higher = more cells survive
[1] = compound: CCC1=CN=CN=C1N2CCN(CC2)CC3=NC4=C(N3)C=C(C=C4)C(F)(F)F + Nc1ncn([C@H]2C[C@H](O)[C@@H](CO)O2)c(=O)n1 [Decitabine] (partner 2 µM)
Outline: (§1)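 After 5 days of treatment, lung cancer cells in 1536-well plates were fixed and stained in a single step (final 0.05% Triton X-100, 1% formaldehyde, 1 ug/ml Hoechst) and their nuclei counted on 4× images. Treatment had been applied by pin tool the day after seeding as one drug alone or as a fixed anchor-drug dose with five library-drug doses (not always all listed) in √10 steps. Relative viability is the nuclei count of treated wells divided by that of vehicle wells, and values are medians of duplicate plates.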

Mirin + Lapatinib = compound: N=C1NC(=O)/C(=C/c2ccc(O)cc2)S1 [Mirin] + CS(=O)(=O)CCNCc1ccc(-c2ccc3ncnc(Nc4ccc(OCc5cccc(F)c5)c(Cl)c4)c3c2)o1 [Lapatinib] (partner 2 µM)
Outline: as §1

[2] = compound: CCC1=CN=CN=C1N2CCN(CC2)CC3=NC4=C(N3)C=C(C=C4)C(F)(F)F + N=C(N)NC(=N)NCCc1ccccc1 [Phenformin] (partner 250 µM)
Outline: as §1

[3] = compound: CCn1c(-c2nonc2N)nc2cnc(Oc3cccc(NC(=O)c4ccc(OCCN5CCOCC5)cc4)c3)cc21 + Cc1nc(NC(=O)N2CCC[C@H]2C(N)=O)sc1-c1ccnc(C(C)(C)C(F)(F)F)c1 [Alpelisib] (partner 2 µM)
Outline: as §1

Cell Line | relative viability ([1]; first compound 0.04 µM) | relative viability ([1]; first compound 0.1265 µM) | relative viability ([1]; first compound 0.4 µM) | relative viability ([1]; first compound 1.265 µM) | relative viability ([1]; first compound 4 µM) | relative viability (Mirin + Lapatinib; first compound 0.25 µM) | relative viability (Mirin + Lapatinib; first compound 0.7906 µM) | relative viability (Mirin + Lapatinib; first compound 2.5 µM) | relative viability (Mirin + Lapatinib; first compound 7.906 µM) | relative viability (Mirin + Lapatinib; first compound 25 µM) | relative viability ([2]; first compound 0.04 µM) | relative viability ([2]; first compound 0.1265 µM) | relative viability ([2]; first compound 0.4 µM) | relative viability ([2]; first compound 1.265 µM) | relative viability ([2]; first compound 4 µM) | relative viability ([3]; first compound 0.04 µM) | relative viability ([3]; first compound 0.1265 µM) | relative viability ([3]; first compound 0.4 µM) | relative viability ([3]; first compound 1.265 µM) | relative viability ([3]; first compound 4 µM)
HCC-44 | 0.964 | 0.939 | 0.944 | 0.949 | 0.937 | 1.07 | 1.12 | 1.05 | 1.04 | 1.28 | 0.176 | 0.208 | 0.266 | 0.28 | 0.247 | 0.816 | 0.896 | 0.659 | 0.456 | 0.344
COR-L23 | 0.438 | 0.378 | 0.406 | 0.383 | 0.499 | 0.796 | 1.08 | 0.907 | 0.999 | 0.914 | 0.387 | 0.411 | 0.473 | 0.409 | 0.521 | 0.681 | 0.647 | 0.446 | 0.154 | 0.159
EMC-BAC-2 |  | 0.945 | 0.998 | 0.924 | 1.05 | 0.955 | 0.902 | 0.954 | 0.918 | 0.88 | 0.515 | 0.506 | 0.523 |  | 0.557 | 0.872 | 0.732 | 0.8 | 0.729 | 0.75
LK-2 | 0.254 | 0.266 | 0.346 | 0.256 | 0.231 | 0.787 |  | 0.879 | 0.593 | 0.496 | 0.416 | 0.565 | 0.407 | 0.23 | 0.523 | 1.39 | 1.2 | 1.1 | 0.282 | 0.512
NCI-H3122 | 0.387 | 0.459 | 0.418 | 0.452 | 0.351 | 1.04 | 1.02 | 1.05 | 1.05 | 1.18 | 0.372 | 0.362 | 0.318 | 0.359 | 0.342 | 0.831 | 0.885 | 0.782 | 0.729 | 0.82
NCI-H2126 | 0.598 | 0.58 | 0.595 | 0.541 | 0.58 | 0.77 | 0.735 | 0.765 | 0.717 | 0.621 | 0.524 | 0.533 | 0.521 | 0.515 | 0.581 | 0.804 | 0.703 | 0.728 | 0.822 | 0.789
NCI-H520 | 0.598 | 0.414 | 0.426 | 0.424 | 0.436 | 0.97 | 0.605 | 0.857 | 0.551 | 0.391 | 0.553 | 0.648 | 0.38 |  | 0.46 | 1.18 | 0.982 | 0.897 | 0.788 | 0.522
LOU-NH91 | 0.797 | 0.79 | 0.806 | 0.841 | 0.816 | 0.786 |  | 0.782 | 0.774 | 0.702 | 0.605 | 0.692 | 0.685 | 0.669 | 0.714 | 0.759 | 0.619 | 0.652 | 0.55 | 0.566
NCI-H1651 | 0.623 | 0.413 | 0.667 | 0.602 | 0.581 | 0.882 | 0.832 | 0.938 | 0.711 | 0.824 | 0.369 | 0.321 | 0.308 | 0.332 | 0.375 | 1.09 | 1.06 | 0.883 | 0.964 | 0.653
NCI-H460 | 0.535 | 0.424 | 0.496 | 0.435 | 0.452 | 1.05 | 1.01 | 1.06 | 0.836 | 0.631 | 0.465 | 0.525 | 0.484 | 0.439 | 0.499 | 0.72 | 0.452 | 0.444 | 0.205 | 0.15
